Values of other authors in patent US20070122458A1, “Nicotine and Chocolate Compositions” (priority 2001, published 2007).

Key:
[1] = smoker, cigarette smoking
[2] = intravenous infusion; smokers and non-smokers similarly
[3] = nasal solution insufflation; smokers and non-smokers; not "sweets"

In the case of CN1CCCC1c1cccnc1 (stereo not drawn) [nicotine], the “time to peak blood levels of nicotine after starting smoking” value [1] is listed as 5 to 10 min, the “increase of the resting metabolic rate” value [2] is listed as 6.5% and the “perceived taste intensity of dietary "fat"” value [3] is listed as “significantly reduced”.
